Tested on: human CD8-positive T cell
Assay: Allo-reaction growth test (class I-MLR) of human CD8-positive T cell with dendritic cell
Format: cell-based
Conditions: 5 days
Procedure: After treating the cells with BrdU for a predetermined period of time, the plate was centrifuged (300×g, 10 minutes), and then turned upside down and lightly shaken to remove the labeled medium. The plate was dried (for about 15 minutes) using a hair dryer. A cell fixing and DNA denaturing solution (200 μl, attached to the kit) was added to each well and left alone for 30 minutes. After removing the cell fixing and DNA denaturing solution and further removing water, a peroxidase-labeled anti-BrdU antibody (anti-BrdU-POD reaction solution) (100 μl) (attached to the kit) was added thereto and left alone at room temperature for 90 minutes. The antibody solution was discarded, each well was washed three times with PBS (200 μl), water was discarded, and then the substrate solution (100 μl) (attached to the kit) was added thereto. After carrying out the enzyme reaction for a period of 5 to 30 minutes, 1 N sulfuric acid solution (25 μl) was added thereto and stirred on a shaker. The absorbance of samples was measured by a microplate reader (SPECTRAMAX-PRO) at 450 nm (control wavelength: 690 nm).
A heparinized blood sample was collected from a human, healthy volunteer, and peripheral blood mononuclear cell (PBMC) was isolated by the density gradient centrifugation described in the above-described (2-1). CD8-positive T cell was isolated from this PBMC by the negative selection method described in the above-described (2-1).
CD 14-positive cell was obtained by fractionating the PBMC obtained by the above-described method using VarioMACS (Miltenyl Biotec). Specifically, CD14 antigen was labeled with antibody magnetic beads by adding 20 μl of CD14 MicroBeads (Miltenyl Biotec) to 1×10^7 cells of the PBMC, mixing them and incubating at 6 to 12° C. for 15 minutes. The cells were washed once with an MACS buffer (PBS containing 2 mM EDTA and 0.5% bovine serum albumin (BSA)) (20 ml) (attached to the kit) and re-suspended in the MACS buffer (2 ml). […]

Question: `CCCCN1C(=O)[C@@H]([C@H](O)C2CCCCC2)NC(=O)C12CCN(Cc1ccc(Cc3ccc(C(=O)O)cc3OC)cc1)CC2` [Compound (b), 4-[4-({(3R)-1-butyl-3-[(R)-cyclohexyl(hydroxy)methyl]-2,5-dioxo-1,4,9-triazaspiro[5.5]undec-9-yl}methyl)benzyl]-3-methoxybenzoic acid] was tested. Which “inhibition ratio of allo-reaction growth” value (0.1 μM) did it give?
Answer: Its value is 7.8%.

Question: And the “inhibition ratio of allo-reaction growth” value (1 μM)?
Answer: Its value is 17.6%.

Question: And the “inhibition ratio of allo-reaction growth” value (10 μM)?
Answer: Its value is 44.1%.
